Test system: subjects with PAH
Assay: Example 1 (ARIES-2) Phase III trial, disposition, safety and tolerability
Type: in vivo
Conditions: for Subjects who died: 12 weeks
Protocol: Change from Week 0 to Week 12 was determined.

[1] = male subjects, 2.5 mg once daily

COC(c1ccccc1)(c1ccccc1)[C@H](Oc1nc(C)cc(C)n1)C(=O)O [ambrisentan]
subjects who died during the study or within 30 days of the last dose (2.5 mg once daily): 3.1%
Subjects who died (2.5 mg once daily): 2 (3.1) subjects (% of safety populati
subjects who died during the 12-week study (5 mg once daily): No subjects
Subjects who died (5 mg once daily): 0 (0.0) subjects (% of safety populati
Subjects who died (combined 2.5 mg and 5 mg groups): 2 (1.6) subjects (% of safety populati
male fertility hormones and serial semen samples (in vivo): did not suggest that ambrisentan was associated with an adverse effect on male reproductive potential
mean changes from baseline at Week 12 for serum ALT and AST (in vivo): no notable mean changes
mean total bilirubin and mean alkaline phosphatase (in vivo): notable decrease
subjects who developed elevated serum aminotransferase concentrations >3.0×ULN (in vivo): None
change in testosterone concentration over the 12-week study [1]: -0.09 ± 4.595 nmol/L
change over baseline in FSH concentration at Week 12 [1]: +0.58 IU/liter
change in testosterone concentration over the 12-week study (male subjects, 5 mg once daily): -2.61 ± 6.962 nmol/L

Reference: US9504685B2, “Method for treating a pulmonary hypertension condition” (Gilead Sciences, Inc., priority 2006, dated 2016)
